The source of these data is patent US20170152245A1 (National Taiwan University, priority 2015, published 2017).

For orientation: IC50 means the concentration at which inhibition is half-maximal.

The structures appear in SMILES notation.

The test system of this assay is human platelet suspension. As to the kind of experiment: U46619-induced platelet aggregation in human platelet suspension. The conditions noted are these: Homo sapiens, Platelet, U46619-induced aggregation, platelet suspension; read-out: P.S(U46619) IC50. Type of assay: cell-based. The protocol: Human platelet suspension (PS) was prepared according to the method described previously. Briefly, blood sample, freshly obtained from healthy volunteers who had taken no medications during the preceding 2 weeks, was treated with acid citrate/dextrose (ACD) in a volume ratio of 9:1. After centrifugation at 120 g, 25° C. for 9 min, platelet-rich plasma was transferred into another plastic tube and incubated with heparin (6.4 U/ml) as well as prostaglandin E1 (1 μM). Platelets were spun down by centrifugation at 500 g, 25° C. for 8 min and subsequently washed two times with Tyrode solution (NaH2PO4 0.4 mM; NaCl 136.9 mM; KCl […]; NaHCO3 11.9 mM; CaCl2 2 mM; MgCl2 2.1 mM; glucose 11.1 mM; BSA 3.5 mg/ml; pH 7.35-7.4). The washed platelets were finally suspended in Tyrode's solution and the platelet count was adjusted to 3.75×10^8 platelets/ml. For platelet-rich plasma (PRP) preparation, whole blood was anticoagulated with 1/10 vol of sodium citrate (3.8%, w/v) and centrifuged at 150 g, 25° C. for 9 min.
Platelet aggregation was measured turbidimetrically with a Lumi-aggregometer (Payton Scientific) at 37° C. under stirring condition (900 rpm). Platelet suspensions were prewarmed to 37° C. for 2 min in a silicone-treated glass cuvette. Nstpbp5185 was added 3 min before the addition of platelet-aggregation inducers. The extent of platelet aggregation was determined by recording the increase of light transmission relative to that of control (maximal aggregation, as 100%) for 6 min after the addition of inducer. The final volume and platelet count for measuring platelet aggregation were 500 μl and 3×10^8/ml, respectively.
`Cc1ccc(-c2nc3ccccc3n2Cc2ccccc2F)o1` [Example 13, 1-(o-Fluorobenzyl)-2-(5-methyl-2-furyl)benzimidazole]: the IC50 is 13.1 µM. The value for `Cc1ccc(-c2nc3ccccc3n2Cc2ccccn2)o1` [Example 22, 1-(2-Picoyl)-2-(5-methyl-2-furyl)benzimidazole] was 4.29 µM; that for `Cc1ccc(-c2nc3ccccc3n2Cc2cccnc2)o1` [Example 23, 1-(3-Picoyl)-2-(5-methyl-2-furyl)benzimidazole] was 3.01 µM. As to `Cc1ccc(-c2nc3ccccc3n2Cc2ccncc2)o1` [Example 24, 1-(4-Picoyl)-2-(5-methyl-2-furyl)benzimidazole], the half-maximal inhibitory concentration (IC50) amounted to 14.6 µM. For `COc1ccc2[nH]c(-c3ccc(C)o3)nc2c1` [Example 25, 5-Methoxy-2-(5-methyl-2-furyl)benzimidazole], the half-maximal inhibitory concentration (IC50) was determined as 44.5 µM. Consider `COc1ccc2nc(-c3ccc(C)o3)n(Cc3ccccc3)c2c1` [Example 25a, 1-benzyl-6-methoxy-2-(5-methyl-2-furyl)benzimidazole], for which the IC50 is 1.45 µM.

With `COc1ccc2c(c1)nc(-c1ccc(C)o1)n2Cc1ccccc1` [Example 25b, 1-benzyl-5-methoxy-2-(5-methyl-2-furyl)benzimidazole], the IC50 turned out to be 3.3 µM. In the case of `COc1ccc2nc(-c3ccc(C)o3)n(Cc3cccc(C)c3)c2c1` [Example 27a, 6-methoxy-1-(3-methylbenzyl)-2-(5-methyl-2-furyl)benzimidazole], the IC50 turned out to be 19.2 µM. Regarding `COc1ccc2c(c1)nc(-c1ccc(C)o1)n2Cc1cccc(C)c1` [Example 27b, 5-methoxy-1-(3-methylbenzyl)-2-(5-methyl-2-furyl)benzimidazole], the IC50 is 26.9 µM. Consider `Cc1ccc2[nH]c(-c3ccc(C)o3)nc2c1` [Example 29, 5-methyl-2-(5-methyl-2-furyl)benzimidazole], for which the 50% inhibitory concentration (IC50) stood at 33.7 µM.

For `Cc1ccc(-c2nc3cc(F)ccc3[nH]2)o1` [Example 30], the 50% inhibitory concentration (IC50) was determined as 52.1 µM.

With `Cc1ccc(-c2nc3ccc(F)cc3n2Cc2ccccc2)o1` [Example 30a, 1-benzyl-6-fluoro-2-(5-methyl-2-furyl)benzimidazole], the half-maximal inhibitory concentration (IC50) stood at 6.79 µM. For `Cc1ccc(-c2nc3cc(F)ccc3n2Cc2ccccc2Cl)o1` [Example 31a, 5-fluoro-1-(2-chlorobenzyl)-2-(5-methyl-2-furyl)benzimidazole] the value was 22.7 µM; for `Cc1ccc(-c2nc3ccc(F)cc3n2Cc2ccccc2Cl)o1` [Example 31b, 6-fluoro-1-(2-chlorobenzyl)-2-(5-methyl-2-furyl)benzimidazole], 12.7 µM. The value for `Cc1ccc(-c2nc3cc(F)ccc3n2Cc2cccc(Cl)c2)o1` [Example 32a, 5-fluoro-1-(3-chlorobenzyl)-2-(5-methyl-2-furyl)benzimidazole] was 4.26 µM; that for `Cc1ccc(-c2nc3ccc(F)cc3n2Cc2cccc(Cl)c2)o1` [Example 32b, 6-fluoro-1-(3-chlorobenzyl)-2-(5-methyl-2-furyl)benzimidazole] was 3.09 µM. As for `COc1ccc(Cn2c(-c3ccc(C)o3)nc3cc(F)ccc32)cc1` [Example 34a, 5-fluoro-1-(4-methoxybenzyl)-2-(5-methyl-2-furyl)benzimidazole], the IC50 was 34.5 µM. For `COc1ccc(Cn2c(-c3ccc(C)o3)nc3ccc(F)cc32)cc1` [Example 34b, 6-fluoro-1-(4-methoxybenzyl)-2-(5-methyl-2-furyl)benzimidazole] the value was 32.2 µM; for `Cc1ccc(-c2nc3cc(F)ccc3n2Cc2cccc(F)c2)o1` [Example 37a, 5-fluoro-1-(3-fluorobenzyl)-2-(5-methyl-2-furyl)benzimidazole], 1.7 µM. For `Cc1ccc(-c2nc3ccc(F)cc3n2Cc2cccc(F)c2)o1` [Example 37b, 6-fluoro-1-(3-fluorobenzyl)-2-(5-methyl-2-furyl)benzimidazole] the value was 1.17 µM; for `Cc1ccc(-c2nc3cc(F)ccc3n2Cc2ccccc2F)o1` [Example 38a, 5-fluoro-1-(2-fluorobenzyl)-2-(5-methyl-2-furyl)benzimidazole], 4.14 µM.

Consider `Cc1ccc(-c2nc3ccc(F)cc3n2Cc2ccccc2F)o1` [Example 38b, 6-Fluoro-1-(2-fluorobenzyl)-2-(5-methyl-2-furyl)benzimidazole], for which the IC50 came out at 2.7 µM.

As to `Cc1cccc(Cn2c(-c3ccc(C)o3)nc3cc(F)ccc32)c1` [Example 40a, 5-fluoro-1-(3-methylbenzyl)-2-(5-methyl-2-furyl)benzimidazole], the IC50 was 14.6 µM.

`Cc1cccc(Cn2c(-c3ccc(C)o3)nc3ccc(F)cc32)c1` [Example 40b, 6-Fluoro-1-(3-methylbenzyl)-2-(5-methyl-2-furyl)benzimidazole]: the half-inhibitory concentration (IC50) came to 5.39 µM.

With `Cc1ccc(-c2nc3cc(F)ccc3n2Cc2ccccc2C)o1` [Example 41a, 5-fluoro-1-(2-methylbenzyl)-2-(5-methyl-2-furyl)benzimidazole], the half-maximal inhibitory concentration (IC50) was determined as 2.61 µM. Regarding `Cc1ccc(-c2nc3ccc(F)cc3n2Cc2ccccc2C)o1` [Example 41b, 6-fluoro-1-(2-methylbenzyl)-2-(5-methyl-2-furyl)benzimidazole], the IC50 worked out at 2.38 µM. In the case of `Cc1ccc(-c2nc3cc(Cl)ccc3[nH]2)o1` [Example 42], the IC50 stood at 37.3 µM. For `Cc1ccc(-c2nc3ccc(Cl)cc3n2Cc2ccccc2)o1` [Example 42a, 1-benzyl-6-chloro-2-(5-methyl-2-furyl)benzimidazole] the value was 3.55 µM; for `Cc1ccc(-c2nc3cc(Cl)ccc3n2Cc2ccccc2)o1` [Example 42b, 1-benzyl-5-chloro-2-(5-methyl-2-furyl)benzimidazole], 4.43 µM; for `Cc1ccc(-c2nc3ccc(Cl)cc3n2Cc2ccc(Cl)cc2)o1` [Example 43a, 6-chloro-1-(4-chlorobenzyl)-2-(5-methyl-2-furyl) benzimidazole], 36.5 µM.

Take `Cc1ccc(-c2nc3cc(Cl)ccc3n2Cc2ccc(Cl)cc2)o1` [Example 43b, 5-chloro-1-(4-chlorobenzyl)-2-(5-methyl-2-furyl)benzimidazole]: the half-inhibitory concentration (IC50) turned out to be 127 µM. The value for `Cc1ccc(-c2nc3cc(Cl)ccc3n2Cc2cccc(Cl)c2)o1` [Example 44a, 5-chloro-1-(3-chlorobenzyl)-2-(5-methyl-2-furyl)benzimidazole] was 9.74 µM; that for `Cc1ccc(-c2nc3ccc(Cl)cc3n2Cc2cccc(Cl)c2)o1` [Example 44b, 6-chloro-1-(3-chlorobenzyl)-2-(5-methyl-2-furyl)benzimidazole] was 3.1 µM. For the molecule `Cc1ccc(-c2nc3cc(Cl)ccc3n2Cc2ccccc2Cl)o1` [Example 45a, 5-chloro-1-(2-chlorobenzyl)-2-(5-methyl-2-furyl)benzimidazole], the half-inhibitory concentration (IC50) stood at 46.3 µM. With `Cc1ccc(-c2nc3ccc(Cl)cc3n2Cc2ccccc2Cl)o1` [Example 45b, 6-chloro-1-(2-chlorobenzyl)-2-(5-methyl-2-furyl)benzimidazole], the IC50 was 7.52 µM. Consider `Cc1ccc(-c2nc3ccc(Cl)cc3n2Cc2ccc(F)cc2)o1` [Example 46a, 6-chloro-1-(4-fluorobenzyl)-2-(5-methyl-2-furyl)benzimidazole], for which the IC50 was determined as 3.13 µM. For `Cc1ccc(-c2nc3cc(Cl)ccc3n2Cc2ccc(F)cc2)o1` [Example 46b, 5chloro-1-(4-fluorobenzyl)-2-(5-methyl-2-furyl)benzimidazole] the value was 9.59 µM; for `Cc1ccc(-c2nc3cc(Cl)ccc3n2Cc2cccc(F)c2)o1` [Example 47a, 5-chloro-1-(3-fluorobenzyl)-2-(5-methyl-2-furyl)benzimidazole], 5.55 µM; for `Cc1ccc(-c2nc3ccc(Cl)cc3n2Cc2cccc(F)c2)o1` [Example 47b, 6-chloro-1-(3-fluorobenzyl)-2-(5-methyl-2-furyl)benzimidazole], 4.42 µM. Turning to `Cc1ccc(-c2nc3cc(Cl)ccc3n2Cc2ccccc2F)o1` [Example 48a, 5-chloro-1-(2-fluorobenzyl)-2-(5-methyl-2-furyl)benzimidazole], the half-inhibitory concentration (IC50) was determined as 6.7 µM. As for `Cc1ccc(-c2nc3ccc(Cl)cc3n2Cc2ccccc2F)o1` [Example 48b, 6-chloro-1-(2-fluorobenzyl)-2-(5-methyl-2-furyl)benzimidazole], the IC50 was 3.11 µM. Regarding `COc1ccc(Cn2c(-c3ccc(C)o3)nc3ccc(Cl)cc32)cc1` [Example 49b, 6-chloro-1-(4-methoxybenzyl)-2-(5-methyl-2-furyl)benzimidazole], the IC50 turned out to be 29.6 µM.

As for `COc1cccc(Cn2c(-c3ccc(C)o3)nc3cc(Cl)ccc32)c1` [Example 50a, 5-chloro-1-(3-methoxybenzyl)-2-(5-methyl-2-furyl)benzimidazole], the IC50 was found to be 38 µM. For `COc1cccc(Cn2c(-c3ccc(C)o3)nc3ccc(Cl)cc32)c1` [Example 50b, 6-chloro-1-(3-methoxybenzyl)-2-(5-methyl-2-furyl)benzimidazole], the 50% inhibitory concentration (IC50) came to 27.4 µM.

On to `Cc1ccc(Cn2c(-c3ccc(C)o3)nc3ccc(Cl)cc32)cc1` [Example 51a, 6-chloro-1-(4-methylbenzyl)-2-(5-methyl-2-furyl)benzimidazole], for which the half-inhibitory concentration (IC50) was 53.4 µM.
